Measured values from paper PMC6931124, “NPY1R-targeted peptide-mediated delivery of a dual PPARα/γ agonist to adipocytes enhances adipogenesis and prevents diabetes progression” (Molecular Metabolism, 2019).

What was measured:
[1] = cited from earlier work
Description: The dual PPARα/γ agonist tesaglitazar (tesa), in contrast, contains a carboxyl function suitable for synthesis. […] The clinical investigation of tesa was discontinued in phase III because of safety concerns regarding ...

[2] = set-up: method as in Ljung et al. [74]; conditions: ref Ljung et al. [74]; cited from earlier work
Description: In the present study, we used db/db mice to evaluate the anti-diabetic potency of the peptide conjugate, as these mice are known to develop severe insulin resistance and hypertriglyceridemia.

SGBS cells = experiment: qRT-PCR of adipocyte-marker genes, SGBS; type: cell-based, human; conditions: qPCR, vs DMSO; n ≥ 3
Experimental: The 3T3-L1 or SGBS cells were seeded into 6-well plates and differentiated as previously described. Tesa or peptides were added to the differentiation medium at a concentration of 100 μM on day 2, followed by 12 h or 24 h incubation. On day 4, the cells were washed two times with PBS, harvested by trypsinization, and stored at −70 °C until RNA isolation was performed. […] N ≥ 3 independent experiments with two replicates were performed. For the cell culture experiments, the data were analyzed according to the 2^−ΔΔCt method using 36B4 or GAPDH as housekeeping genes and DMSO treatment as a control. Liver mRNA expression was calculated relative to 18sRNA, which was used as an internal control due to its resistance to glucose-dependent regulation. The mRNA levels were quantified using the standard curve method of QuantStudio 6 Flex software (Applied Biosystems, Foster City, CA, USA), determining the crossing points of the individual samples using an algorithm that identifies the first turning point of the fluorescence curve. Amplification of the specific transcripts was confirmed by the melting curve profiles (cooling the sample to 68 °C and heating slowly to 95 °C while measuring the fluorescence) at the end of each PCR [53].
(A, B) Cells were differentiated and stimulated according to the protocol depicted for 3T3-L1 (A) and for SGBS (B). […] Bars represent mean ± SEM from n = 3 independent experiments performed in quadruplicates. Measurements were normalized using DMSO (vehicle)-treated cells (set to 100%). Statistical significances refer to vehicle-treated cells. (E,F) Expression of adipocyte-enriched genes in 3T3-L1 (E) or SGBS (F) adipocytes analyzed by qPCR. Values represent mean ± SEM from n ≥ 3 independent experiments performed in duplicates. […] Statistical significances refer to DMSO-treated cells and were determined by one-way analysis of variance (ANOVA) followed by Dunnett's multiple comparison test, *≤0.05, **p ≤ 0.01, ***p ≤ 0.001.

PPARγ = experiment: PPAR reporter gene assay (luciferase); type: cell-based
Experimental: HEK293 cells stably expressing NPY1R C-terminally fused to eYFP were seeded into white 96-well plates, grown to 70–80% confluence, and transfected using Lipofectamine 2000 transfection reagent according to the manufacturer's protocol. For luciferase reporter gene assays, 250 ng reporter plasmid, positive control plasmid or negative control plasmid (Cignal PPAR Reporter (luc) Kit), 250 ng PPARγ expression vector, and 250 ng RXRα expression vector were applied in addition to 0.75 μl of Lipofectamine 2000 transfection reagent per well. For selectivity assays, HEK293 cells without stable NPY1R-eYFP transfection and HEK293 NPY1R-eYFP cells without PPARγ transfection were used. After 24 h of transfection, the cells were treated with tesa or peptides for an additional 24 h. […] Luciferase assays were performed using the Dual-Luciferase System Kit according to the manufacturer's instructions. The relative firefly luciferase activity was normalized by the corresponding Renilla luciferase activity, the luciferase activity of the cells transfected with the negative control plasmid, and the DMSO vehicle control. The assays were performed in at least three independent experiments.
Furthermore, plasmids coding for PPARγ and RXRα were transfected. Because PPARγ binds as a heterodimer with RXRα to PPRE-responsive elements, RXRα is needed for PPARγ activity.
Figure 5 Transcriptional activity of the PPAR reporter gene. […] The depicted values represent mean ± SEM from n ≥ 3 independent experiments. All measurements were normalized to the transcriptional activity of DMSO-treated cells expressing all factors (set to […]). Statistical significance was determined by one-way analysis of variance (ANOVA) followed by Dunnett's multiple comparison test, *≤0.05, **p ≤ 0.01, ***p ≤ 0.001.

[3] = tested on: subcutaneous and epigonadal adipose tissue; experiment: Adipose tissue histology and adipocyte size; type: in vivo; conditions: db/db mice, 2.5 μmol/kg/day, 8 days; H&E, epigonadal and subcutaneous AT
Experimental: (§1) All of the experiments were performed according to the animal ethical laws of the state Saxony, Germany, and were approved by the local animal ethics review board (Landesdirektion Sachsen, Leipzig, Germany). Female db/db mice 12–15 weeks of age were purchased from Taconic (Denmark) and housed in groups of 5 in temperature- and humidity-controlled facilities in a 12 h:12 h light–dark cycle and had free access to tap water and food (regular chow, Sniff, Soest, Germany). Three out of seven groups served as controls (N = 15, see Table 1). The 5 db/db mice were untreated and 10 db/db mice were vehicle treated either orally or intraperitoneally (i.p.). One additional group (n = 5) of lean C57BL/6NTac mice was used as a metabolically healthy control group. Groups 1 to 5 were treated daily with 2.5 μmol/kg body weight tesa, peptides or vehicle (1% (v/v) DMSO in PBS) either by gavage or intraperitoneal injection for 8 days according to Table 1. The control mice were gavaged with an equal volume of vehicle.

Serum Mcp-1 = type: in vivo; conditions: db/db mice, 2.5 μmol/kg/day, 8 days; ELISA; n = 5
Experimental: as §1, with “Groups 1 to 5 were treated daily with 2.5 μmol/kg body weight tesa, peptides or vehicle (1% (v/v) DMSO in PBS) either by gavage or intraperitoneal injection for 8 days according to Table 1. The control mice were gavaged with an equal volume of vehicle.” left out
(§2) Serum insulin (mouse insulin ELISA, Mercodia, Uppsala, Sweden), adiponectin (mouse adiponectin ELISA, AdipoGen, San Diego, CA, USA), leptin (mouse leptin ELISA, Crystal Chem, Downers Grove, IL, USA), and Mcp-1 (mouse/rat CCL2/JE/Mcp-1 Quantikine ELISA, R&D Systems, Minneapolis, MN, USA) levels were analyzed via ELISA according to the manufacturer's instructions. Serum concentrations of TG, FFA, and cholesterol were measured by an automatic chemical analyzer at the Institute of Laboratory Medicine and Clinical Chemistry.

[4] = volunteers, ref [111]; cited from earlier work
Description: Thus, the observed anti-diabetic effects are assumed to result from adipocyte-specific PPARγ-mediate ...

Serum leptin = type: in vivo; conditions: db/db mice, 2.5 μmol/kg/day, 8 days; ELISA; n = 5
Experimental: as §1, with “Groups 1 to 5 were treated daily with 2.5 μmol/kg body weight tesa, peptides or vehicle (1% (v/v) DMSO in PBS) either by gavage or intraperitoneal injection for 8 days according to Table 1. The control mice were gavaged with an equal volume of vehicle.” left out
as §2

## CCO[C@@H](Cc1ccc(OCCc2ccc(OS(C)(=O)=O)cc2)cc1)C(=O)O [tesa, tesaglitazar]
[1]; mice and humans, ref [41, 42, 43]
  insulin resistance: reduce insulin resistance in mice and humans
[1]; phase III, ref [16, 44]
  clinical safety: discontinued in phase III because of safety concerns regarding renal dysfunction
[2]
  weight gain in treated animals: does not lead to weight gain in treated animals
SGBS cells
  Cidec expression, SGBS: enhanced the expression of adiponectin, Fabp4, and Cidec
  Fabp4 expression, SGBS: only Fabp4 induction by tesa reached significant differences
  adiponectin expression, SGBS: enhanced the expression of adiponectin, Fabp4, and Cidec
PPARγ; 100 μM, HEK293 NPY1R without PPARγ transfection
  transcriptional activity in absence of PPARγ: complete loss of transcriptional activity
PPARγ; 100 μM, HEK293 without NPY1R, with PPARγ
  transcriptional activity in absence of NPY1R: not influenced by NPY1R expression
PPARγ; HEK293 NPY1R, PPARγ, RXRα, 24 h
  concentration-response curve / potency in reporter assay: demonstrated a saturation curve
PPARγ; HEK293 stably expressing NPY1R, transfected with PPAR reporter, PPARγ, RXRα, 24 h treatment, n ≥ 3
  relative transcriptional activity (luciferase): Concentration-dependent luciferase activity was detected
[3]
  adipocyte size: trend toward smaller adipocyte size
Serum Mcp-1
  Mcp-1 levels: no significant effect
[4]
  absorption after oral dosing: rapidly and completely absorbed after oral dosing
Serum leptin
  serum leptin concentration: no significant effect
